Measurements reported in ChEMBL document CHEMBL5506036, “Exploring the Structural Attributes of Yoda1 for the Development of New-Generation Piezo1 Agonist Yaddle1 as a Vaccine Adjuvant Targeting Optimal T Cell Activation” (J Med Chem, 2024).
Converted amounts (≈) assume the structure as drawn. The source made the active and inactive calls. The calls are words filed in the database; no cut-off is given here.

Tests used:
[1] = biological target: T1, Piezo-type mechanosensitive ion channel component 1 (Homo sapiens, UniProt Q92508); experiment: Agonist activity at human PIEZO1 overexpressing HEK293-A cells co-expressing mCherry-piezo1 assessed as fold change in calcium influx at 5 uM by fluo-3 based real-time flow cytometric analysis; type: cell-based
T1 sequence (Q92508 whole entry): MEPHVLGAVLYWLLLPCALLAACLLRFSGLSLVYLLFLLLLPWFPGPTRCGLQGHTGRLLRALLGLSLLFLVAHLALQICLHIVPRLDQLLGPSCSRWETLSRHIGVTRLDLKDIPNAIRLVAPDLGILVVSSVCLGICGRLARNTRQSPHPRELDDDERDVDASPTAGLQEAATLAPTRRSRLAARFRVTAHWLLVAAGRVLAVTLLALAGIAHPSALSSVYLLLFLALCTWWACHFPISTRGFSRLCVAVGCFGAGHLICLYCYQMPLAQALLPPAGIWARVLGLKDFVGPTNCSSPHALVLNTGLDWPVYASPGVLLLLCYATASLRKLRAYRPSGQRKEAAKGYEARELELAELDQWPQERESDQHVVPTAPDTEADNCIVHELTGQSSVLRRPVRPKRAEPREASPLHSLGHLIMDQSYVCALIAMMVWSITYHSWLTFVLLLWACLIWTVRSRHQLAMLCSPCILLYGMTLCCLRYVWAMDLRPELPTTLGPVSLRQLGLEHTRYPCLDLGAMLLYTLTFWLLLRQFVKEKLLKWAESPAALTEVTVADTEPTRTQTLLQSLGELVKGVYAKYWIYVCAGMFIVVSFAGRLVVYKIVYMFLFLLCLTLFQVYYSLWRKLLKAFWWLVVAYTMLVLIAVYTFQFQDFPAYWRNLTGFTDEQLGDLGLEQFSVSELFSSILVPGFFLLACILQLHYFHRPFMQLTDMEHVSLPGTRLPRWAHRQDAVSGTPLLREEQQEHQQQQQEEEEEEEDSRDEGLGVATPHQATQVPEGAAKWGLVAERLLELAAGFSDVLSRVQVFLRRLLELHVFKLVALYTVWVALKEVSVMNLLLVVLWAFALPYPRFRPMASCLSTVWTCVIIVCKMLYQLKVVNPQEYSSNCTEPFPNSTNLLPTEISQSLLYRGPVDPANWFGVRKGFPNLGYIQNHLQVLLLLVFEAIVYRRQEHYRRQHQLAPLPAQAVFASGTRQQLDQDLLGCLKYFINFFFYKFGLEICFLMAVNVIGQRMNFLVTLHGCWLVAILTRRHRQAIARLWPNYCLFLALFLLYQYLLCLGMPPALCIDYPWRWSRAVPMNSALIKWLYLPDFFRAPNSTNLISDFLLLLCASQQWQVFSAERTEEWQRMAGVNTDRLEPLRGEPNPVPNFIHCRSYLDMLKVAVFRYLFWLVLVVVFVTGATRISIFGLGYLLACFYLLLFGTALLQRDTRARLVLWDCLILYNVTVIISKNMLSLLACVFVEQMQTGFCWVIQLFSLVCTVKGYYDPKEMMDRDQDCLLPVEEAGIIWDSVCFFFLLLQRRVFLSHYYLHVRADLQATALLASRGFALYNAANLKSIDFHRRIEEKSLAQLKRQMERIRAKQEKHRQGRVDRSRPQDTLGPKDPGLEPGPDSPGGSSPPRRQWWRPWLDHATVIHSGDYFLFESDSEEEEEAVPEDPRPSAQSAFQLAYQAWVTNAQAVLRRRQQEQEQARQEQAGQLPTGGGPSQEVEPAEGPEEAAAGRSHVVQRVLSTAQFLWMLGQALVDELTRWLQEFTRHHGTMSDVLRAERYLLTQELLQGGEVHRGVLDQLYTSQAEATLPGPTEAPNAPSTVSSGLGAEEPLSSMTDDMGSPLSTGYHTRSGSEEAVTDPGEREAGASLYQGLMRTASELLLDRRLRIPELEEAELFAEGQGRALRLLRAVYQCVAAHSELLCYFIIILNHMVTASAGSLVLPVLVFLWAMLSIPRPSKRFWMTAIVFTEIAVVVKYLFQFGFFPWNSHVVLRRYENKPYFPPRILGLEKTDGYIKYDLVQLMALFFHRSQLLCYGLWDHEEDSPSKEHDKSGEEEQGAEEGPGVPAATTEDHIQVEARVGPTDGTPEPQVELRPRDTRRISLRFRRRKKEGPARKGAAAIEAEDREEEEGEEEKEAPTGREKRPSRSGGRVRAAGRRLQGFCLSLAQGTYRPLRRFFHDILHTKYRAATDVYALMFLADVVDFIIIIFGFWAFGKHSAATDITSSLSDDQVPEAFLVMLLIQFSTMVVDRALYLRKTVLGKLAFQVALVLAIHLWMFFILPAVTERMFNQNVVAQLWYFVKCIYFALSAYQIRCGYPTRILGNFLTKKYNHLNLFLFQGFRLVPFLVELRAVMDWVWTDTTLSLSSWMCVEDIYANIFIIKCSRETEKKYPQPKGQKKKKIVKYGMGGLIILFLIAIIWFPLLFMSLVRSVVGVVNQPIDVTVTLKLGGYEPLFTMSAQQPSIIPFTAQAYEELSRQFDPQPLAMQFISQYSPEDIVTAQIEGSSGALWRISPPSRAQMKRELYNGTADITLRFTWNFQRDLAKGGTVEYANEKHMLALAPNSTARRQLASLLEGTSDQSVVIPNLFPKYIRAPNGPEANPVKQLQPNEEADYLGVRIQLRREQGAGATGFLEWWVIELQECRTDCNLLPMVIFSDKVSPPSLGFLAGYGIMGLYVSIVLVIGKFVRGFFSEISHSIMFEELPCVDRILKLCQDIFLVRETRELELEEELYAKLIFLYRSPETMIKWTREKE

[2] = biological target: T1, Piezo-type mechanosensitive ion channel component 1; experiment: Agonist activity at human PIEZO1 overexpressing HEK293-A cells co-expressing mCherry-piezo1 assessed as induction of calcium influx by fluo-3 based real-time flow cytometric analysis; type: cell-based
[3] = biological target: T1, Piezo-type mechanosensitive ion channel component 1; experiment: Agonist activity at human PIEZO1 overexpressing HEK293-A cells co-expressing mCherry-piezo1 assessed as fold change in calcium influx at 10 uM by fluo-3 based real-time flow cytometric analysis; type: cell-based
[4] = biological target: T1, Piezo-type mechanosensitive ion channel component 1; experiment: Agonist activity at human PIEZO1 overexpressing HEK293-A cells co-expressing mCherry-piezo1 assessed as fold change in calcium influx at 20 uM by fluo-3 based real-time flow cytometric analysis; type: cell-based
[5] = biological target: T1, Piezo-type mechanosensitive ion channel component 1; experiment: Agonist activity at human PIEZO1 overexpressing HEK293-A cells co-expressing mCherry-piezo1 assessed as fold change in calcium influx at 1 uM by fluo-3 based real-time flow cytometric analysis; type: cell-based
[6] = biological target: T1, Piezo-type mechanosensitive ion channel component 1; experiment: Agonist activity at human PIEZO1 overexpressing HEK293-A cells co-expressing mCherry-piezo1 assessed as induction of calcium influx by measuring maximum efficacy in fold change by fluo-3 based real-time flow cytometric analysis; type: cell-based; conditions: filed as agonist
[7] = biological target: T1, Piezo-type mechanosensitive ion channel component 1; experiment: Agonist activity at human PIEZO1 overexpressing HEK293-A cells co-expressing mCherry-piezo1 assessed as fold change in calcium influx at 0.5 uM by fluo-3 based real-time flow cytometric analysis; type: cell-based
[8] = biological target: T1, Piezo-type mechanosensitive ion channel component 1; experiment: Agonist activity at human PIEZO1 overexpressing HEK293-A cells co-expressing mCherry-piezo1 assessed as fold change in calcium influx at 0.1 uM by fluo-3 based real-time flow cytometric analysis; type: cell-based
[9] = biological target: T1, Piezo-type mechanosensitive ion channel component 1; experiment: Agonist activity at human PIEZO1 overexpressing HEK293-A cells co-expressing mCherry-piezo1 assessed as fold change in calcium influx at 15 uM by fluo-3 based real-time flow cytometric analysis; type: cell-based
[10] = biological target: T1, Piezo-type mechanosensitive ion channel component 1; experiment: Agonist activity at PIEZO1 in human CD4+ T cell assessed as intracellular calcium influx measured for 30 mins by flow cytometry analysis; type: cell-based
[11] = Cytotoxicity against human PBMC cells assessed as decrease in cell viability at 20 uM incubated for 24 hrs by MTT assay; type: toxicity, cell-based
[12] = Cytotoxicity against human PBMC cells assessed as decrease in cell viability at 0.1 to 5 uM incubated for 6 hrs by MTT assay; type: toxicity, cell-based; conditions: dose 0.1-5 µM
[13] = Kinetic aqueous solubility of compound in PBS at pH 7.4 measured after 24 hrs by HPLC-UV analysis; type: physicochemical; conditions: read-out: Kinetic_solubility
[14] = biological target: T1, Piezo-type mechanosensitive ion channel component 1; experiment: Agonist activity at PIEZO1 in human CD4+ T cell assessed as fold increase in intracellular calcium influx measured for 30 mins by flow cytometry analysis; type: cell-based
[15] = biological target: T1, Piezo-type mechanosensitive ion channel component 1; experiment: Agonist activity at human PIEZO1 overexpressing HEK293-A cells co-expressing mCherry-piezo1 assessed as fold change in calcium influx at 25 uM by fluo-3 based real-time flow cytometric analysis; type: cell-based

Compound | fold change (FC) [1] | EC50 [2] [nM] | fold change (FC) [3] | fold change (FC) [4] | fold change (FC) [5] | fold change (FC) [6] | fold change (FC) [7] | fold change (FC) [8] | fold change (FC) [9] | Activity [10] | Activity [11] | Activity [12] | solubility kinetic at 24 h [13] [µM] | fold change (FC) [14] | Activity [15]
Brc1ccc(Br)c(CSc2nnc(-c3cnccn3)o2)c1 | < 1.2 | 9900 | > 1.2 | > 1.2 | < 1.2 | 1.9 | < 1.2 | < 1.2 | > 1.2 |  |  |  |  |  | 
FC(F)(F)c1ccccc1CSc1nnc(-c2cnccn2)o1 | < 1.2 | 2060 | > 1.2 | > 1.2 | < 1.2 | 1.35 | < 1.2 | < 1.2 | > 1.2 | inactive | Non-Toxic | Non-Toxic |  |  | 
c1ccc(CSc2nnc(-c3cnccn3)o2)cc1 |  |  |  | < 1.2 |  |  |  |  | < 1.2 |  |  |  |  |  | 
O=C([O-])Cc1ccccc1Nc1c(Cl)cccc1Cl.[Na+] [DICLOFENAC SODIUM] |  |  |  |  |  |  |  |  |  |  |  |  | 205 |  | 
N#Cc1ccccc1CSc1nnc(-c2cnccn2)o1 |  |  |  | < 1.2 |  |  |  |  | < 1.2 |  |  |  |  |  | 
Clc1ccccc1CSc1nnc(-c2ccc[nH]2)o1 | < 1.2 |  | < 1.2 | < 1.2 | < 1.2 |  | < 1.2 | < 1.2 | < 1.2 |  |  |  |  |  | 
Brc1cccc(Br)c1CSc1nnc(-c2cnccn2)o1 | > 1.2 | 2100 | > 1.2 | > 1.2 | > 1.2 | 2.5 | > 1.2 | < 1.2 | < 1.2 |  |  |  |  | > 2 | 
FC(F)(F)c1ccc(C(F)(F)F)c(CSc2nnc(-c3cnccn3)o2)c1 | > 1.2 | 1000 | > 1.2 | > 1.2 | > 1.2 | 1.68 | < 1.2 | < 1.2 | > 1.2 | inactive |  |  |  |  | 
Clc1cccc(Cl)c1CSc1nnc(-c2cnccn2)s1 | > 1.2 | 500 | > 1.2 | > 1.2 | > 1.2 | 2.4 | > 1.2 | < 1.2 | > 1.2 |  |  |  | 1.22 (≈ 0.433 µg/mL) |  | 
Clc1cccc(CSc2nnc(-c3cnccn3)o2)c1Cl |  |  |  | < 1.2 |  |  |  | < 1.2 |  |  |  |  |  |  | 
Cc1ccccc1CSc1nnc(-c2cnccn2)o1 |  |  |  | < 1.2 |  |  |  |  | < 1.2 |  |  |  |  |  | 
Clc1cccc(Cl)c1CSc1nnc(-c2cnccn2)o1 | > 1.2 | 1340 | > 1.2 | > 1.2 | > 1.2 | 2.07 | < 1.2 | < 1.2 | > 1.2 |  |  |  |  | > 2 | 
Fc1cccc(Cl)c1CSc1nnc(-c2cnccn2)o1 | > 1.2 | 1090 | > 1.2 | > 1.2 | < 1.2 | 1.55 | < 1.2 | < 1.2 | < 1.2 |  |  |  |  |  | 
FC(F)(F)c1ccc(Br)c(CSc2nnc(-c3cnccn3)o2)c1 | > 1.2 | 600 | > 1.2 | > 1.2 | > 1.2 | 2.3 | > 1.2 | < 1.2 | > 1.2 |  |  |  |  |  | 
Clc1cccc(Cl)c1CSc1nnc(-c2cnccn2)[nH]1 |  |  |  | < 1.2 |  |  |  |  | < 1.2 |  |  |  |  |  | inactive
Clc1ccc(CSc2nnc(-c3cnccn3)o2)c(Cl)c1 |  |  |  | < 1.2 |  |  |  | < 1.2 |  |  |  |  |  |  | 
FC(F)(F)c1ccc(Cl)c(CSc2nnc(-c3cnccn3)o2)c1 | > 1.2 | 880 | > 1.2 | > 1.2 | > 1.2 | 2.3 | > 1.2 | < 1.2 | > 1.2 |  |  |  |  |  | 
Fc1ccccc1CSc1nnc(-c2cnccn2)o1 |  |  |  | < 1.2 |  |  |  |  | < 1.2 |  |  |  |  |  | 

Compound | fold change (FC) [1] | EC50 [2] [nM] | fold change (FC) [3] | fold change (FC) [4] | fold change (FC) [5] | fold change (FC) [6] | fold change (FC) [7] | fold change (FC) [8] | fold change (FC) [9] | Activity [10] | Activity [11] | Activity [12] | solubility kinetic at 24 h [13] [µM] | fold change (FC) [14] | Activity [15]
O=c1oc(-c2cnccn2)nn1Cc1ccccc1Cl | < 1.2 |  | < 1.2 | < 1.2 | < 1.2 |  | < 1.2 | < 1.2 | < 1.2 |  |  |  |  |  | 
FC(F)(F)c1cccc(Br)c1CSc1nnc(-c2cnccn2)o1 | > 1.2 | 460 | > 1.2 | > 1.2 | > 1.2 | 2.7 | > 1.2 | > 1.2 | > 1.2 |  |  |  |  |  | 
CC/C(=C(/CC)c1ccc(O)cc1)c1ccc(O)cc1 [DIETHYLSTILBESTROL] |  |  |  |  |  |  |  |  |  |  |  |  | 14.4 (≈ 3.85 µg/mL) |  | 
Clc1cccc(Cl)c1CSc1nnc(-c2ccc[nH]2)o1 | < 1.2 |  | < 1.2 | < 1.2 | < 1.2 |  | < 1.2 | < 1.2 | < 1.2 |  |  |  |  |  | 
O=[N+]([O-])c1ccccc1CSc1nnc(-c2cnccn2)o1 |  |  |  | < 1.2 |  |  |  |  | < 1.2 |  |  |  |  |  | 
FC(F)(F)c1ccc(Cl)cc1CSc1nnc(-c2cnccn2)o1 | > 1.2 | 550 | > 1.2 | > 1.2 | > 1.2 | 1.7 | > 1.2 | < 1.2 | > 1.2 |  |  |  |  |  | 
Clc1cccc(Cl)c1CNc1nnc(-c2cnccn2)o1 | < 1.2 |  | < 1.2 | < 1.2 | < 1.2 |  | < 1.2 | < 1.2 | < 1.2 |  |  |  |  |  | 
Clc1ccc(Cl)c(CSc2nnc(-c3cnccn3)o2)c1 | < 1.2 | 570 | > 1.2 | > 1.2 | < 1.2 | 1.25 | < 1.2 | < 1.2 | > 1.2 |  |  |  |  |  | 
Fc1cccc(F)c1CSc1nnc(-c2cnccn2)o1 |  |  |  | < 1.2 |  |  |  | < 1.2 |  |  |  |  |  |  | 
Clc1ccccc1CNc1nnc(-c2cnccn2)o1 | < 1.2 |  | < 1.2 | < 1.2 | < 1.2 |  | < 1.2 | < 1.2 | < 1.2 |  |  |  |  |  | 
Clc1cccc(Br)c1CSc1nnc(-c2cnccn2)o1 | > 1.2 | 1040 | > 1.2 | > 1.2 | > 1.2 | 2.9 | > 1.2 | < 1.2 | < 1.2 |  |  |  |  | > 2 | 
FC(F)(F)c1cccc(Cl)c1CSc1nnc(-c2cnccn2)o1 | > 1.2 | 400 | > 1.2 | > 1.2 | > 1.2 | 2.6 | > 1.2 | > 1.2 | > 1.2 |  | Non-Toxic | Non-Toxic | 26.7 (≈ 9.96 µg/mL) | > 2 | 
Brc1ccccc1CSc1nnc(-c2cnccn2)o1 |  |  |  | < 1.2 |  |  |  |  | < 1.2 |  |  |  |  |  | 
Clc1ccccc1CSc1nnc(-c2cnccn2)[nH]1 |  |  |  | < 1.2 |  |  |  |  | < 1.2 |  |  |  |  |  | inactive
Ic1ccccc1CSc1nnc(-c2cnccn2)o1 |  |  |  | < 1.2 |  |  |  |  | < 1.2 |  |  |  |  |  | 
O=c1oc(-c2cnccn2)nn1Cc1c(Cl)cccc1Cl | < 1.2 |  | < 1.2 | < 1.2 | < 1.2 |  | < 1.2 | < 1.2 | < 1.2 |  |  |  |  |  | 
Clc1ccccc1CSc1nnc(-c2cnccn2)o1 |  |  |  | < 1.2 |  |  |  |  | < 1.2 |  |  |  |  |  | 
